For series [1], the target named is E. coli MurA enzyme (UDP-N-acetylglucosamine enolpyruvyl transferase) (Escherichia coli, UniProt P0A749). The series can be described thus: MurA inhibition assay (malachite green, deselection). The note with it: read-out: MurA inhibition, RA (Residual Activity).
Experimental: Inhibition of the enzyme was determined using an end-point malachite green assay by detecting the orthophosphate formed during the enzymatic reaction. […] The final DMSO concentration was 5%. […] A parallel experiment without the enzyme was performed to detect insoluble compounds under the assay conditions and subtracted from each measurement. All experiments were performed in duplicates. RAs were calculated with respect to blank experiments without tested compounds and with 5% DMSO.
Series [2] has as its target T1, E. coli DdlB enzyme (D-alanine:D-alanine ligase) (Escherichia coli, UniProt P07862).
T1 construct: made in house; host or cells: E. coli
The series can be described thus: biochemical. The following applies: for IC50: 700 μM D-Ala, 100 μM ATP, read-out: DdlB inhibition IC50; for remaining activity at 5000 µM: at 5 mM; for remaining activity at 2100 µM: tested concentration 2.1 mM; for remaining activity at 1700 µM: tested concentration 1.7 mM; for remaining activity at 2000 µM: tested concentration 2.0 mM; for remaining activity at 1800 µM: tested concentration 1.8 mM; for remaining activity at 2200 µM: tested concentration 2.2 mM.

Series [3] can be described thus: Solubility at tested concentrations in fragment library screening. It is filed as physicochemical. An excerpt: Supplement IENZ_A_2149745_SM2502.zip/DDlB_CDR05_SI_20221103.xlsx, sheet "Fragment library screening" | column: Solubility at tested concentrations
The subject of the next series is E. coli ATCC 25922. In words: MIC by broth microdilution. It is filed as cell-based. The note with it: Escherichia coli, ATCC25922; E. coli ATCC 25922, 20 h at 35 °C; read-out: MIC. How it is done:
(§1) The antibacterial activities of 3 were determined according to the European Committee for […] Susceptibility Testing recommendations and Clinical Laboratory Standards Institute protocol. Compound was tested against reference strains of E. coli and Staphylococcus aureus and against two mutant E. coli strains. E. coli D22 bears a mutation in the LpxC gene that increases membrane permeability, whereas E. coli N43 is an AcrA knockout strain (knockout of the cell membrane pump). […] The most plausible reason is the low on target activity of the hit fragment, however, also the poor penetration into the bacterial cell or efflux pumps effect cannot be ruled out. Although the lack of antibacterial activity is a limitation, hit compound 3 represents a fragment-sized starting point for the development of new compounds with increased DdlB inhibitory potency as well as antibacterial activity.
(§2) Minimum inhibitory concentrations (MICs) for 3 were determined by broth microdilution in Cation-adjusted Mueller-Hinton broth (MH) with TES, TREK Diagnostic Systems Ltd. against S. aureus ATCC 29213, E. coli ATCC 25922, E. coli N43 and E. coli D22. All of the experiments were performed in duplicate in 96-well plate format according to CLSI guidelines and European Committee for Antimicrobial Susceptibility Testing recommendations. The bacterial suspension of a specific bacterial strain was diluted with MH broth to obtain a final inoculum of 5 × 10^5 CFU/mL in the assay. Compound 3 dissolved in DMSO and inoculum were mixed together and incubated for 20 h at 35 °C. After incubation, the minimal inhibitory concentration (MIC) values were determined by visual inspection as the lowest dilution of compounds showing no turbidity. The MICs were determined against S. aureus (ATCC 29213), E. coli (ATCC 25922), E. coli N43, and E. coli D22 bacterial strains. D-Cycloserine was used as a positive control.
(In general: Dilution methods test growth across graded concentrations, often in twofold steps.)

For the next series, the system named is E. coli D22. In words: MIC by broth microdilution. The class given is cell-based. The following applies: Escherichia coli, D22, 20 h. How it is done: as §1, §2
In a further series the test system is S. aureus ATCC 29213. In words: MIC by broth microdilution. It is filed as cell-based. The note with it: Staphylococcus aureus, ATCC29213; S. aureus ATCC 29213, 20 h at 35 °C; read-out: MIC. As to the method:
as §1, §2

A further series deals with E. coli N43. In words: MIC by broth microdilution. The class given is cell-based. The following applies: Escherichia coli, N43, 20 h. As to the method:
as §1, §2

[4] abbreviates: read-out: DdlB inhibition, RA (Residual Activity).
Setting [5] is: residual activity, read-out: DdlB RA.

This note sets out measurements from publication PMC9718554, “Discovery of a fragment hit compound targeting D-Ala:D-Ala ligase of bacterial peptidoglycan biosynthesis” (Journal of Enzyme Inhibition and Medicinal Chemistry, 2022).

≈ marks a conversion by molar mass, not a printed value. Like-named read-outs stand apart in the source and are kept apart here.

Chain of E. coli MurA enzyme (UDP-N-acetylglucosamine enolpyruvyl transferase) (P0A749 whole entry): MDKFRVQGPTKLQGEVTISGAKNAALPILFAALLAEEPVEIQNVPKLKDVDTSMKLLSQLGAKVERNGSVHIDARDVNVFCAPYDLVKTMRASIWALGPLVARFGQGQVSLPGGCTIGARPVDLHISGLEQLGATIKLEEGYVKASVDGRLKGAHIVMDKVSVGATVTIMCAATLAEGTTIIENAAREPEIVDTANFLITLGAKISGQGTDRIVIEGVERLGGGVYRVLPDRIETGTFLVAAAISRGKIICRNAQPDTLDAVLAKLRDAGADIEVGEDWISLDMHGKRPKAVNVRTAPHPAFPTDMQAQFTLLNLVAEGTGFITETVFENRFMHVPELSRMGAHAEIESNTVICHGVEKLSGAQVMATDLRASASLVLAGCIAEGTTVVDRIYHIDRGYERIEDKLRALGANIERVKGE

As to `COc1ccc(-n2c(C)ccc2C)nc1` [Compound 4], the remaining activity at 5000 µM in series [1] worked out at 39%. In series [2], the IC50 (in general, the point on the concentration scale where inhibition reaches its midpoint) was determined as 1790 µM.
`Cc1noc(C)c1C(=O)NCC1Cn2cccc2CN1C` (stereo not drawn) [Compound 5]: in series [1], the remaining activity at 5000 µM is 6%. Moreover, the remaining activity at 2500 µM in series [2] (at 2.5 mM, read-out: DdlB inhibition, RA (Residual Activity)) was 28%.
Regarding `CCOc1ccc2c(n1)CCN(C(=O)c1ccccn1)C2` [Compound 6, (2-Ethoxy-7,8-dihydro-1,6-naphthyridin-6(5H)-yl)(pyridin-2-yl)methanone], the remaining activity at 5000 µM in series [1] came out at 104%; in series [2] (setting [4]) it was 25%. For the same compound, the remaining activity at 2100 µM in series [2] (setting [5]) amounted to 44%.
Take `Nc1ccc2ncc(C(=O)O)c(O)c2c1` [Compound 7, 6-Amino-4-hydroxyquinoline-3-carboxylic acid]: the remaining activity at 5000 µM amounted to 81% in series [1] and 47% in series [2] (setting [4]).
Taken in the same sequence, the figures for `COCc1cn(C2CNC2)nn1` [Compound 8] were 100% and 95%.
Turning to `COc1cccc(NC2=NS(=O)(=O)c3ccccc32)c1` [Compound 8005-1580], the “Solubility at tested concentrations” value in series [3] (tested concentration 1.7 mM) is reported as “not soluble”. Also, the remaining activity at 1700 µM in series [2] (setting [5]) is 50%.
In the case of `CN1CCN(S(=O)(=O)c2cccc3cccnc23)CC1` [Compound 8006-7667], the “Solubility at tested concentrations” value in series [3] (tested concentration 2.1 mM) was “not soluble”. The remaining activity at 2100 µM in series [2] (setting [5]) is 60%.
Take `OC1CCCc2c1[nH]c1ccc(Br)cc21` (stereo not drawn) [Compound 8010-6263]: the “Solubility at tested concentrations” value in series [3] (tested concentration 1.9 mM) is on record as “not soluble”. The remaining activity at 1900 µM in series [2] (residual activity, tested concentration 1.9 mM, read-out: DdlB RA) amounted to 29%.
`CN(C(=O)c1cc[nH]n1)C1CC(C)(C)N(C)C(C)(C)C1` [Compound 8013-1135]: the “Solubility at tested concentrations” value in series [3] (tested concentration 2.0 mM) is listed as “not soluble”. In addition, in series [2] (setting [5]), the remaining activity at 2000 µM was -1.26%.
As for `O=C1COc2ccccc2N1Cc1ccc2c(c1)OCO2` [Compound 8018-5756], in series [3] (tested concentration 1.8 mM), the “Solubility at tested concentrations” value is “not soluble”. Also, the remaining activity at 1800 µM in series [2] (setting [5]) was found to be 103%.
For the compound `CCc1cc(C(=O)N2CC3(C)CC2CC(C)(C)C3)no1` (stereo not drawn) [Compound C226-2780], the “Solubility at tested concentrations” value in series [3] (tested concentration 2.2 mM) is recorded as “not soluble”. For the same compound, the remaining activity at 2200 µM in series [2] (setting [5]) came out at 25%.
For `COC(=O)c1cc2occc2n1Cc1ccccc1Cl` [Compound C777-0071], the “Solubility at tested concentrations” value in series [3] (tested concentration 1.7 mM) is given as “not soluble”. For the same compound, the remaining activity at 1700 µM in series [2] (setting [5]) is 82%.
For `Cc1ccccc1N(C)C(=O)Cc1noc2ccccc12` [Compound E207-0386], in series [3] (tested concentration 2.1 mM), the “Solubility at tested concentrations” value is “not soluble”. Further, in series [2] (setting [5]), the remaining activity at 2100 µM is 102%.
`CCc1ccc(C2Nc3ccccc3S(=O)(=O)N2)cc1` (stereo not drawn) [Compound F475-0262]: the “Solubility at tested concentrations” value in series [3] (tested concentration 2.1 mM) is on record as “not soluble”. Further, in series [2] (setting [5]), the remaining activity at 2100 µM is 68%.
For the compound `CC1c2cccn2CCN1C(=O)Nc1ccccc1Cl` (stereo not drawn) [Compound G551-0008], the “Solubility at tested concentrations” value in series [3] (tested concentration 1.7 mM) is recorded as “not soluble”. In addition, the remaining activity at 1700 µM in series [2] (setting [5]) stood at 112%.
As for `O=C(NCCc1ccco1)C1COc2ccccc2C1` (stereo not drawn) [Compound G668-0290], the “Solubility at tested concentrations” value in series [3] (tested concentration 2.2 mM) is listed as “not soluble”. The remaining activity at 2200 µM in series [2] (setting [5]) worked out at 70%.
On to `O=C(Nc1ccccc1F)NC1COc2ccccc2C1` (stereo not drawn) [Compound G765-0058], for which, in series [3] (tested concentration 1.7 mM), the “Solubility at tested concentrations” value is “not soluble”. Moreover, the remaining activity at 1700 µM in series [2] (setting [5]) was 93%.
`Cc1ccccc1-n1nnnc1C1(N(C)C)CCCC1` [Compound J034-0206]: the “Solubility at tested concentrations” value in series [3] (tested concentration 2.2 mM) is reported as “not soluble”. Moreover, the remaining activity at 2200 µM in series [2] (setting [5]) came to 91%.
On to `Cc1ccc(S(=O)(=O)N(C)CC2CCOC2)c(C)c1` (stereo not drawn) [Compound S213-1641], for which the “Solubility at tested concentrations” value in series [3] (tested concentration 2.1 mM) is listed as “not soluble”. Besides, the remaining activity at 2100 µM in series [2] (setting [5]) was 110%.
On the same counts, the results for `Cc1ccccc1S(=O)(=O)Nc1cnc2c(c1)CCC2` [Compound T157-0058] are “not soluble” and 48%.
For the compound `CC(C)Oc1n[nH]c(-c2ccc(Cl)cc2Cl)n1` [Compound V017-7311], the “Solubility at tested concentrations” value in series [3] (tested concentration 2.2 mM) is “not soluble”. Besides, the remaining activity at 2200 µM in series [2] (setting [5]) was found to be 98%.
On to `CC(C)(C)OC(=O)NCc1cccc(-c2cncs2)c1` [Compound V029-2538], for which the “Solubility at tested concentrations” value in series [3] (tested concentration 1.7 mM) is “not soluble”. Moreover, the remaining activity at 1700 µM in series [2] (setting [5]) was 69%.
With `O=S(=O)(NC1CCCCCC1)c1ccc(F)cc1` [Compound Y030-0828], the “Solubility at tested concentrations” value in series [3] (tested concentration 2.0 mM) is given as “not soluble”. In addition, the remaining activity at 2000 µM in series [2] (setting [5]) worked out at 89%.
As to `O=S(=O)(Cc1ccc(Cl)cc1)N1CCOCC1` [Compound Y031-1160], the “Solubility at tested concentrations” value in series [3] (tested concentration 2.2 mM) was “not soluble”. Also, the remaining activity at 2200 µM in series [2] (setting [5]) is 118%.
Take `O=C(O)c1cnc2ccc(OC(F)(F)F)cc2c1O` [Compound Y042-3162]: the “Solubility at tested concentrations” value in series [3] (tested concentration 1.8 mM) is “not soluble”. Further, the remaining activity at 1800 µM in series [2] (fragment library screening, read-out: DdlB RA) was -5%.
For the compound `CC1CCN(C(=O)CC2(n3cccc3)CCCCC2)CC1` [Compound Y042-5984], the “Solubility at tested concentrations” value in series [3] (tested concentration 1.7 mM) was “not soluble”. The remaining activity at 1700 µM in series [2] (setting [5]) came out at 90%.
As for `Cc1ccc(C)c(S(=O)(=O)N2CCCC(C)C2)c1` (stereo not drawn) [Compound Y206-4328], in series [3] (tested concentration 2.2 mM), the “Solubility at tested concentrations” value was “not soluble”. Also, the remaining activity at 2200 µM in series [2] (setting [5]) came out at 116%.
On to `CC1CCCC(NC(=O)c2ccc(Cl)cc2)C1C` (stereo not drawn) [Compound Y502-2265], for which the “Solubility at tested concentrations” value in series [3] (tested concentration 2.3 mM) is “not soluble”. For the same compound, the remaining activity at 2300 µM in series [2] (residual activity, tested concentration 2.3 mM, read-out: DdlB RA) was 91%.
On to `O=C(O)c1cc(-c2ccccc2)nc2c(Cl)cnn12` [Compound Y504-7719], for which the “Solubility at tested concentrations” value in series [3] (tested concentration 2.2 mM) was “not soluble”. For the same compound, the remaining activity at 2200 µM in series [2] (setting [5]) was 90%.
In the case of `O=S(=O)(c1ccccc1)N1CCOc2ccccc21` [Compound Z606-0391], in series [3] (tested concentration 2.0 mM), the “Solubility at tested concentrations” value is given as “not soluble”. Also, the remaining activity at 2000 µM in series [2] (setting [5]) was determined as 97%.
On to `N[C@@H]1CON=C1O` [D-Cyclo-serine, D-Cycloserine, reference compound], for which the MIC (commonly the smallest concentration in the dilution series that meets the test's criterion for growth inhibition) came to 64 µg/mL (≈ 627 µM) in the series with E. coli ATCC 25922, 16 µg/mL (≈ 157 µM) in the series on E. coli D22, 32 µg/mL (≈ 313 µM) in the series on S. aureus ATCC 29213 and 32 µg/mL (≈ 313 µM) against E. coli N43. In addition, the IC50 in series [2] was 108 µM.
